Test results: patent publication US7968526B2, “Antisense oligonucleotides directed to ribonucleotide reductase R2 and uses thereof in the treatment of cancer” (Lorus Therapeutics Inc., priority 2003, dated 2011)

Assay: Tissue distribution in the rat (CE method)
Type: in vivo
Experimental: The toxicokinetics and tissue distribution of SEQ ID NO:1 (and related oligonucleotide metabolites obtained from exonuclease-mediated chain shortening) were determined in rats and monkeys. In addition to investigating the pharmacokinetics and tissue distribution of SEQ ID NO:1, the purpose of the studies was to correlate adverse effects in the animal studies to the concentrations of SEQ ID NO:1 (and metabolites) in tissue and blood. A capillary electrophoresis (CE) method was used to measure the concentrations of SEQ ID NO:1 (and metabolites) in plasma and tissues.
The concentrations of SEQ ID NO:1 (and related n+1, n−1 to n−15 oligonucleotide metabolites) in the following rat and monkey tissues were measured by a validated CE method (Southwest Bio-Labs, Inc.): kidney, liver, spleen, heart, lung, bone marrow (rat), lymph nodes (monkey) and brain tissues. The tissue samples were collected from the designated animals as described in the 21-day toxicity studies: rats, administered bolus intravenous injections of SEQ ID NO:1 every other day at 2, 10, or 50 mg/kg; and monkeys administered SEQ ID NO:1 by continuous intravenous infusion at 2, 10, or 50 mg/kg/day.

[1] = 10 mg/kg bolus i.v. every other day, 4 hrs post last dose
[2] = 10 mg/kg bolus i.v. every other day, 48 hrs post first dose
[3] = 50 mg/kg bolus i.v. every other day, 4 hrs post first dose
[4] = 50 mg/kg bolus i.v. every other day, 4 hrs post last dose
[5] = 50 mg/kg bolus i.v. every other day, 48 hrs post first dose

## 5′-GGCTAAATCGCTCCACCAAG-3′ (all phosphorothioate, sugars by position and methylation of C not given here) [SEQ ID NO: 1, fully phosphorothioated antisense oligonucleotide that hybridizes to the coding region of R2 mRNA]
[1]
  Mean Concentration total metabolites (n + 1 through n − 13), Bone Marrow: 6.6 µg/g
  Mean Concentration total metabolites (n + 1 through n − 13), Brain: BDL (below detectable limits (1 μg/g rat; 0.2 μg/g monkey))
  Mean Concentration total metabolites (n + 1 through n − 13), Heart: 9.4 µg/g
  Mean Concentration total metabolites (n + 1 through n − 13), Kidney: 613.5 µg/g
  Mean Concentration total metabolites (n + 1 through n − 13), Liver: 105.9 µg/g
  Mean Concentration total metabolites (n + 1 through n − 13), Lung: 3.3 µg/g
  Mean Concentration total metabolites (n + 1 through n − 13), Spleen: 13.5 µg/g
[2]
  Mean Concentration SEQ ID NO: 1, Bone Marrow: BDL (below detectable limits (1 μg/g rat; 0.2 μg/g monkey))
  Mean Concentration SEQ ID NO: 1, Brain: BDL (below detectable limits (1 μg/g rat; 0.2 μg/g monkey))
  Mean Concentration SEQ ID NO: 1, Heart: BDL (below detectable limits (1 μg/g rat; 0.2 μg/g monkey))
  Mean Concentration SEQ ID NO: 1, Kidney: 13.3 µg/g
  Mean Concentration SEQ ID NO: 1, Liver: 4.7 µg/g
  Mean Concentration SEQ ID NO: 1, Lung: BDL (below detectable limits (1 μg/g rat; 0.2 μg/g monkey))
  Mean Concentration SEQ ID NO: 1, Spleen: BDL (below detectable limits (1 μg/g rat; 0.2 μg/g monkey))
  Mean Concentration total metabolites (n + 1 through n − 13), Bone Marrow: BDL (below detectable limits (1 μg/g rat; 0.2 μg/g monkey))
  Mean Concentration total metabolites (n + 1 through n − 13), Brain: BDL (below detectable limits (1 μg/g rat; 0.2 μg/g monkey))
  Mean Concentration total metabolites (n + 1 through n − 13), Heart: BDL (below detectable limits (1 μg/g rat; 0.2 μg/g monkey))
  Mean Concentration total metabolites (n + 1 through n − 13), Kidney: 68.4 µg/g
  Mean Concentration total metabolites (n + 1 through n − 13), Liver: 8.3 µg/g
  Mean Concentration total metabolites (n + 1 through n − 13), Lung: BDL (below detectable limits (1 μg/g rat; 0.2 μg/g monkey))
  Mean Concentration total metabolites (n + 1 through n − 13), Spleen: BDL (below detectable limits (1 μg/g rat; 0.2 μg/g monkey))
[3]
  Mean Concentration SEQ ID NO: 1, Bone Marrow: 13.2 µg/g
  Mean Concentration SEQ ID NO: 1, Brain: BDL (below detectable limits (1 μg/g rat; 0.2 μg/g monkey))
  Mean Concentration SEQ ID NO: 1, Heart: 14.5 µg/g
  Mean Concentration SEQ ID NO: 1, Kidney: 86.1 µg/g
  Mean Concentration SEQ ID NO: 1, Liver: 51.9 µg/g
  Mean Concentration SEQ ID NO: 1, Lung: 13.3 µg/g
  Mean Concentration SEQ ID NO: 1, Spleen: 32.7 µg/g
  Mean Concentration total metabolites (n + 1 through n − 13), Bone Marrow: 19.5 µg/g
  Mean Concentration total metabolites (n + 1 through n − 13), Brain: BDL (below detectable limits (1 μg/g rat; 0.2 μg/g monkey))
  Mean Concentration total metabolites (n + 1 through n − 13), Heart: 13.0 µg/g
  Mean Concentration total metabolites (n + 1 through n − 13), Kidney: 187 µg/g
  Mean Concentration total metabolites (n + 1 through n − 13), Liver: 79.9 µg/g
  Mean Concentration total metabolites (n + 1 through n − 13), Lung: 21.8 µg/g
  Mean Concentration total metabolites (n + 1 through n − 13), Spleen: 19.9 µg/g
[4]
  Mean Concentration SEQ ID NO: 1, Bone Marrow: 29.9 µg/g
  Mean Concentration SEQ ID NO: 1, Brain: BDL (below detectable limits (1 μg/g rat; 0.2 μg/g monkey))
  Mean Concentration SEQ ID NO: 1, Heart: 20.8 µg/g
  Mean Concentration SEQ ID NO: 1, Kidney: 286.6 µg/g
  Mean Concentration SEQ ID NO: 1, Liver: 91.6 µg/g
  Mean Concentration SEQ ID NO: 1, Lung: 18.2 µg/g
  Mean Concentration SEQ ID NO: 1, Spleen: 18.4 µg/g
  Mean Concentration total metabolites (n + 1 through n − 13), Bone Marrow: 67.4 µg/g
  Mean Concentration total metabolites (n + 1 through n − 13), Brain: BDL (below detectable limits (1 μg/g rat; 0.2 μg/g monkey))
  Mean Concentration total metabolites (n + 1 through n − 13), Heart: 42.5 µg/g
  Mean Concentration total metabolites (n + 1 through n − 13), Kidney: 1373.6 µg/g
  Mean Concentration total metabolites (n + 1 through n − 13), Liver: 279.7 µg/g
  Mean Concentration total metabolites (n + 1 through n − 13), Lung: 30.0 µg/g
  Mean Concentration total metabolites (n + 1 through n − 13), Spleen: 60.8 µg/g
[5]
  Mean Concentration SEQ ID NO: 1, Bone Marrow: 2.8 µg/g
  Mean Concentration SEQ ID NO: 1, Brain: BDL (below detectable limits (1 μg/g rat; 0.2 μg/g monkey))
  Mean Concentration SEQ ID NO: 1, Heart: 2.5 µg/g
  Mean Concentration SEQ ID NO: 1, Kidney: 48.2 µg/g
  Mean Concentration SEQ ID NO: 1, Liver: 19.8 µg/g
  Mean Concentration SEQ ID NO: 1, Lung: 2.1 µg/g
  Mean Concentration SEQ ID NO: 1, Spleen: 1.4 µg/g
  Mean Concentration total metabolites (n + 1 through n − 13), Bone Marrow: 4.4 µg/g
  Mean Concentration total metabolites (n + 1 through n − 13), Brain: BDL (below detectable limits (1 μg/g rat; 0.2 μg/g monkey))
  Mean Concentration total metabolites (n + 1 through n − 13), Heart: 7.2 µg/g
  Mean Concentration total metabolites (n + 1 through n − 13), Kidney: 287.6 µg/g
  Mean Concentration total metabolites (n + 1 through n − 13), Liver: 68.7 µg/g
  Mean Concentration total metabolites (n + 1 through n − 13), Lung: 3.8 µg/g
  Mean Concentration total metabolites (n + 1 through n − 13), Spleen: 2.2 µg/g
Lower limit for detection 1 μg/g
  Concentrations in the brain: below the limits of detection
